Reference: patent US8344158B2, “Fluorescent polymethine cyanine dyes” (Washington University, priority 2007, dated 2013)

What was measured:
[1] = Fluorescence spectroscopy (emission, relative quantum yield, brightness); format: physicochemical; settings: for ΦF, relative fluorescence quantum yield: MeOH, ICG as standard; for λmax, em: in methanol (Table 1); for ΦB, relative brightness referenced to ICG: product of quantum yield and molar absorptivity, ICG = 1
Experimental: UV-Vis and Fluorescent Spectroscopic Analysis. Stock solutions (3.0 mM) of the dye and its conjugates were prepared by dissolving them in DMSO. […] The molar extinction coefficient was obtained using Beer's law at 0.1-0.6 μM concentration of the dye. The relative fluorescence quantum yield was determined using the equation: ΦF(x)=(As/Ax)(Fx/Fs)(nx/ns)^2ΦF(s)
where ΦF(X) is the fluorescence quantum yield, A is the absorbance, F is the area under the emission curve, n is the refractive index of the solvents used in measurement, and the subscripts s and x represent the standard and unknown, respectively. Indocyanine green (ICG) was used as a reference standard.

[2] = UV-Vis absorption spectroscopy; format: physicochemical; settings: for ε / λmax: in 25% aqueous DMSO
Experimental: UV-Vis and Fluorescent Spectroscopic Analysis. Stock solutions (3.0 mM) of the dye and its conjugates were prepared by dissolving them in DMSO. […] The molar extinction coefficient was obtained using Beer's law at 0.1-0.6 μM concentration of the dye. […]

In the case of `CC1(C)C(=CC=C2CCCC(C=CC3=[N+](CCCS(=O)(=O)[O-])c4ccc5ccccc5c4C3(C)C)=C2c2ccc(C(=O)O)cc2)N(CCCS(=O)(=O)[O-])c2ccc3ccccc3c21.[Na+]` [Dye 2a], the “ΦF, relative fluorescence quantum yield” value [1] is reported as 0.088, the “λmax, em” value [1] is reported as 811 nm and the “ΦB, relative brightness referenced to ICG” value [1] is reported as 1.3. The “λmax, abs” value [2] was 800 nm, the ε [2] was 240 000 M^−1 cm^−1 and the λmax [2] was 800 nm.

For `CC1(C)C(=CC=C2CCCC(C=CC3=[N+](CCCCS(=O)(=O)[O-])c4ccc5ccccc5c4C3(C)C)=C2c2ccc(C(=O)O)cc2)N(CCCCS(=O)(=O)[O-])c2ccc3ccccc3c21.[Na+]` [Dye 2b], the “ΦF, relative fluorescence quantum yield” value [1] was 0.092, the “λmax, em” value [1] was 811 nm and the “ΦB, relative brightness referenced to ICG” value [1] was 1.4. The “λmax, abs” value [2] was 800 nm, the ε [2] was 240 000 M^−1 cm^−1 and the λmax [2] was 800 nm.

With `CC1(C)C(=CC=C2CCCC(C=CC3=[N+](CCCCS(=O)(=O)[O-])c4ccc(S(=O)(=O)[O-])cc4C3(C)C)=C2c2ccc(C(=O)O)cc2)N(CCCCS(=O)(=O)[O-])c2ccc(S(=O)(=O)[O-])cc21.[Na+].[Na+].[Na+]` [Dye 2c] the “ΦF, relative fluorescence quantum yield” value [1] was 0.10, the “λmax, em” value [1] was 785 nm and the “ΦB, relative brightness referenced to ICG” value [1] was 1.4. For the same compound, the “λmax, abs” value [2] was 770 nm, the ε [2] was 220 000 M^−1 cm^−1 and the λmax [2] was 770 nm.

In the case of `CC1(C)C(/C=C/C=C/C=C/C=C2\N(CCCCS(=O)(=O)O)c3ccc4ccccc4c3C2(C)C)=[N+](CCCCS(=O)(=O)[O-])c2ccc3ccccc3c21` [ICG, indocyanine green, reference compound], the “λmax, em” value [1] is reported as 807 nm, the “ΦB, relative brightness referenced to ICG” value [1] is reported as 1 and the “ε (molar absorptivity)” value [2] is reported as 204000 M⁻¹ cm⁻¹. For the same compound, the “λmax, abs” value [2] was 785 nm.
